Results published in patent US4046910A, “Dosage schedule” (The Upjohn Company, priority 1976, dated 1977).
Where a name gives a salt, the structure may show the parent alone.

What was measured:
[1] = test system: allergic manifestations caused by antigen-antibody interaction; conditions: tris(hydroxymethyl)aminomethane salts; U.S. Ser. No. 233,772 and 261,524; cited from earlier work
[2] = test system: rat passive cutaneous anaphylaxis; assay: rat passive cutaneous anaphylaxis (PCA) test; type: in vivo, rat (female Sprague-Dawley); set-up: key to Spot Score: total detectable spots divided by number of animals; conditions: for % Inhibition in Rat PCA: 48 hour sensitization
Excerpt: The compound under review is first tested in the rat passive cutaneous anaphylaxis test system. This test is employed to determine if the compound does inhibit allergic manifestations. A DSCG biologue will inhibit allergic manifestations. The anti-allergy activity of DSCG biologues vary.
Female Sprague-Dawley 250 gm. rats are skin-sensitized with rat anti-ovalbumin homocytotropic antibody that is heat labile and has a passive cutaneous anaphylaxis titer of (1:128). After a 72-hour latency period, the animals are challenged i.v. with a 4 mg. ovalbumin (OA) + 5 mg. Evans blue dye. Thirty minutes later the extravascular bluing that results from antigen antibody combination at the skin site is read. Antibody dilutions are used such that in control animals a 4 mm spot in the lowest detectable spot, and 4 or 5 lower dilutions are used to give a range of antibody in each animal. Four to five animals are used for each variable in the experiment. Percent inhibition of the PCA assay is calculated by comparing the spot scores of DSCG treated rats with the spot scores of control rats. The spot score is the total number of detectable spots over the number of animals.
DSCG Priming Treatment: Passively sensitized rats are injected i.v. 2.0 hours before antigen challenge i.v. Two hours after an i.v. priming dose of 10 mg./kg. DSCG, the rats are challenged with antigen alone.
The time course of the effective life of DSCG in rats is shown in Table I. DSCG was administered i.p. and was followed by i.v. challenge with 4 mg. ovalbumin and 5 mg. of Evans Blue. Spot score was calculated 30 minutes later from a total of four animals for each time point.
The animals are rested 2 hours between primary i.v. DSCG injection and i.v. antigen challenge, including secondary DSCG dosing. In view of Table I, this time period is of such a length that the effect from the initial dose of DSCG is not a significant factor.
The effect of a time lag between priming doses and secondary doses with regard to the drug sparing effect and the responsiveness of the treated mammal to further treatment with DSCG or a DSCG biologue is shown in Table III. Rats were injected once daily with 10 mg./kg. DSCG for three days. Control rats were also injected with 1.0 ml. of saline at the same time. Twenty and 48 hours after the last dose of DSCG in the three dose series all rats were injected with DSCG. 4 mg. ovalbumin, and 5 mg. of Evans Blue dye.
Th sparing effect using a DSCG biologue, the tris(hydroxymethyl)aminomethane salt of 10-chloro-1,4,6,9-tetrahydro-4,6-dioxopyrido[3,2-g]quinoline-2,8-dicarboxylic acid, referred to as Compound 10 Cl in this Example, is shown in the rat PCA of Table IV. When using this compound in a priming situation, 2.0 mg./kg., 1.0 mg./kg., 0.025 mg./kg. and 0.01 mg./kg. give inhibitions of 93, 86, 44 and 0% respectively. The data of Table IV are obtained in the usual manner except that a 48 hour instead of a 72 hour sensitization period was used.

[3] = man; cited from earlier work
[4] = test system: allergic and anaphylactic conditions; conditions: cited from earlier work
[5] = test system: mediators of anaphylaxis; conditions: cited from earlier work
[6] = 10 mg./kg. i.p., 5 min before i.v. challenge
[7] = 10 mg./kg. i.p., 7 min before i.v. challenge
[8] = 10 mg./kg. i.p., 10 min before i.v. challenge
[9] = 10 mg./kg. i.p., 15 min before i.v. challenge
[10] = 10 mg./kg. i.p., 18 min before i.v. challenge
[11] = 10 mg./kg. i.p., 20 min before i.v. challenge
[12] = 10 mg./kg. i.p., 25 min before i.v. challenge
[13] = 10 mg./kg. i.p., 30 min before i.v. challenge
[14] = 10 mg./kg. i.p., 60 min before i.v. challenge

Cc1c2[nH]c(C(=O)O)cc(=O)c2cc2c(=O)cc(C(=O)O)[nH]c12 [1,4,6,9-tetrahydro-10-methyl-4,6-dioxopyrido[3,2-g]quinoline-2,8-dicarboxylic acid]
ability to prophylactically protect against allergic manifestations [1]: have this ability to prophylactically protect against allergic manifestations

O=C(O)c1cc(=O)c2cc3c(=O)cc(C(=O)O)[nH]c3c(Cl)c2[nH]1 [Compound 10 Cl, tris(hydroxymethyl)aminomethane salt of 10-chloro-1,4,6,9-tetrahydro-4,6-dioxopyrido[3,2-g]quinoline-2,8-dicarboxylic acid]
sparing ([2]; 0.01 mg./kg. maintenance dose, primed with 2.0 or 1.0 mg./kg.): sparing is seen | inhibition in a priming situation ([2]; 0.01 mg./kg. priming): 0% | inhibition in a priming situation ([2]; 0.025 mg./kg. priming): 44% | inhibition in a priming situation ([2]; 1.0 mg./kg. priming): 86% | inhibition in a priming situation ([2]; 2.0 mg./kg. priming): 93% | % Inhibition in Rat PCA ([2]; priming 0.01 mg./kg., secondary 0.01 mg./kg.): 6% | % Inhibition in Rat PCA ([2]; priming 0.01 mg./kg., secondary 0.025 mg./kg.): 44% | % Inhibition in Rat PCA ([2]; priming 0.01 mg./kg., secondary 1.0 mg./kg.): 71% | % Inhibition in Rat PCA ([2]; priming 0.01 mg./kg., secondary 2.0 mg./kg.): 80% | % Inhibition in Rat PCA ([2]; priming 0.025 mg./kg., secondary 0.01 mg./kg.): 6% | % Inhibition in Rat PCA ([2]; priming 0.025 mg./kg., secondary 0.025 mg./kg.): 23% | % Inhibition in Rat PCA ([2]; priming 0.025 mg./kg., secondary 1.0 mg./kg.): 52% | % Inhibition in Rat PCA ([2]; priming 0.025 mg./kg., secondary 2.0 mg./kg.): 62% | % Inhibition in Rat PCA ([2]; priming 1.0 mg./kg., secondary 0.01 mg./kg.): 44% | % Inhibition in Rat PCA ([2]; priming 1.0 mg./kg., secondary 0.025 mg./kg.): 44% | % Inhibition in Rat PCA ([2]; priming 1.0 mg./kg., secondary 1.0 mg./kg.): 44% | % Inhibition in Rat PCA ([2]; priming 1.0 mg./kg., secondary 2.0 mg./kg.): 52% | % Inhibition in Rat PCA ([2]; priming 2.0 mg./kg., secondary 0.01 mg./kg.): 52% | % Inhibition in Rat PCA ([2]; priming 2.0 mg./kg., secondary 0.025 mg./kg.): 33% | % Inhibition in Rat PCA ([2]; priming 2.0 mg./kg., secondary 1.0 mg./kg.): 14% | % Inhibition in Rat PCA ([2]; priming 2.0 mg./kg., secondary 2.0 mg./kg.): 6% | ability to prophylactically protect against allergic manifestations [1]: have this ability to prophylactically protect against allergic manifestations

O=C(O)c1cc(=O)c2c(OCC(O)COc3cccc4oc(C(=O)O)cc(=O)c34)cccc2o1 [DSCG, disodium salt of 1,3-bis(2-carboxychromon-5-yloxy)-2-hydroxypropane]
inhibition given as a priming dose ([2]; 0.1 mg. priming dose): does not provide any inhibition | % Inhibition [2, 6]: 26% | Spot Score [2, 6]: 1.67 | % Inhibition [2, 7]: 26% | Spot Score [2, 7]: 1.67 | % Inhibition [2, 8]: 73% | Spot Score [2, 8]: 0.66 | % Inhibition [2, 9]: 51% | Spot Score [2, 9]: 1.00 | % Inhibition [2, 10]: 44% | Spot Score [2, 10]: 1.25 | % Inhibition [2, 11]: 33% | Spot Score [2, 11]: 1.50 | % Inhibition [2, 12]: 26% | Spot Score [2, 12]: 1.67 | % Inhibition [2, 13]: 11% | Spot Score [2, 13]: 2.0 | % Inhibition [2, 14]: 11% | Spot Score [2, 14]: 2.0 | persistence of inhibiting effect ([2]; 10 mg./kg. i.p., in 30 minutes): most of the inhibiting effect of DSCG has disappeared | inhibitory effect in rat PCA after priming dose alone ([2]; 10 mg./kg. i.v. priming, antigen challenge i.v. 2 hours later): No inhibitory effects are observed | inhibition given as a priming dose ([2]; 10 mg./kg. priming dose): 79% | % Inhibition ([2]; 10 mg./kg., i.v. at challenge): 100% | Spot Score ([2]; 10 mg./kg., i.v. at challenge): 0 | drug sparing effect from the priming dosage ([2]; 20 hours post priming): present at 20 hours post priming | drug sparing effect from the priming dosage ([2]; 48 hours post priming): has disappeared at 48 hours post priming | effect of high priming doses on high secondary doses ([2]; high doses in priming and secondary dose situation): inhibit the action of high doses of DSCG in the secondary dose situation | Inhibition in Rat PCA ([2]; priming 0.1 mg./kg. i.v., secondary DSCG 0.1 mg./kg. with antigen 2 hours later): 2% | Inhibition in Rat PCA ([2]; priming 0.1 mg./kg. i.v., secondary DSCG 1.0 mg./kg. with antigen 2 hours later): 39% | Inhibition in Rat PCA ([2]; priming 0.1 mg./kg. i.v., secondary DSCG 10 mg./kg. with antigen 2 hours later): 79% | Inhibition in Rat PCA ([2]; priming 1.0 mg./kg. i.v., secondary DSCG 0.1 mg./kg. with antigen 2 hours later): 27% | Inhibition in Rat PCA ([2]; priming 1.0 mg./kg. i.v., secondary DSCG 1.0 mg./kg. with antigen 2 hours later): 39% | Inhibition in Rat PCA ([2]; priming 1.0 mg./kg. i.v., secondary DSCG 10 mg./kg. with antigen 2 hours later): 98% | Inhibition in Rat PCA ([2]; priming 10 mg./kg. i.v., secondary DSCG 0.1 mg./kg. with antigen 2 hours later): 39% | Inhibition in Rat PCA ([2]; priming 10 mg./kg. i.v., secondary DSCG 1.0 mg./kg. with antigen 2 hours later): 51% | Inhibition in Rat PCA ([2]; priming 10 mg./kg. i.v., secondary DSCG 10 mg./kg. with antigen 2 hours later, mean percent from 15 animals): 51% | % Inhibition in the Rat PCA ([2]; saline i.v. 3 times, then DSCG dose 0.1): 0% | % Inhibition in the Rat PCA ([2]; saline i.v. 3 times, then DSCG dose 1.0): 11% | % Inhibition in the Rat PCA ([2]; saline i.v. 3 times, then DSCG dose 5.0): 47% | % Inhibition in the Rat PCA ([2]; saline i.v. 3 times, then DSCG dose 10): 82% | % Inhibition in the Rat PCA ([2]; secondary DSCG dose 0, 48 hours after last of three daily 10 mg./kg. DSCG): 0% | % Inhibition in the Rat PCA ([2]; secondary DSCG dose 0.05, 20 hours after last of three daily 10 mg./kg. DSCG): 47% | % Inhibition in the Rat PCA ([2]; secondary DSCG dose 0.05, 48 hours after last of three daily 10 mg./kg. DSCG): 2% | % Inhibition in the Rat PCA ([2]; secondary DSCG dose 0.1, 20 hours after last of three daily 10 mg./kg. DSCG): 52% | % Inhibition in the Rat PCA ([2]; secondary DSCG dose 0.1, 48 hours after last of three daily 10 mg./kg. DSCG): 0% | % Inhibition in the Rat PCA ([2]; secondary DSCG dose 1.0, 20 hours after last of three daily 10 mg./kg. DSCG): 58% | % Inhibition in the Rat PCA ([2]; secondary DSCG dose 5.0, 20 hours after last of three daily 10 mg./kg. DSCG): 20% | % Inhibition in the Rat PCA ([2]; secondary DSCG dose 5.0, 48 hours after last of three daily 10 mg./kg. DSCG): 65% | % Inhibition in the Rat PCA ([2]; secondary DSCG dose 10, 20 hours after last of three daily 10 mg./kg. DSCG): 20% | % Inhibition in the Rat PCA ([2]; secondary DSCG dose 10, 48 hours after last of three daily 10 mg./kg. DSCG): 73% | serum half life [3]: approximately 2 minutes | relief from allergic and anaphylactic conditions ([4]; administered in a prophylactic manner): provides relief from allergic and anaphylactic conditions | inhibition of allergic manifestations on continuing administration ([4]; same dose level, significant number of individuals): lower levels of inhibition which may be clinically ineffective

CCCCC[C@H](O)/C=C/[C@H]1[C@H](O)CC(=O)[C@@H]1CCCCCCC(=O)O [Prostaglandin E1]
response in the DSCG biologue tests [5]: respond appropriately to some of the tests but not all of them

CCCCC[C@H](O)/C=C/[C@H]1[C@H](O)CC(=O)[C@@H]1C/C=C\CCCC(=O)O [Prostaglandin E2]
response in the DSCG biologue tests [5]: respond appropriately to some of the tests but not all of them

O=C(O)c1cc(=O)c2cc(-c3ccc4[nH]c(C(=O)O)cc(=O)c4c3)ccc2[nH]1 [tris(hydroxymethyl)aminomethane salt of 1,1',4,4'-tetrahydro-4,4'-dioxo[6,6'-biquinoline]-2,2'-dicarboxylic acid]
ability to prophylactically protect against allergic manifestations [1]: have this ability to prophylactically protect against allergic manifestations
